In the assay the target is TrkA (Homo sapiens (Human), UniProt P04629). Put plainly: TrkA Omnia Assay. Conditions: averaged IC50; 20 nM enzyme, 500 μM ATP, 10 μM peptide substrate. The format is biochemical. An outline of the steps: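 Recombinant TrkA (20 nM) preincubated 10 min at ambient temperature with compound, then Omnia Tyr Peptide #4 (10 μM) and ATP (500 μM) added in 25 mM MOPS pH 7.5, 5 mM MgCl2, 0.005% Triton X-100. Fluorescence (ex 360/em 485 nm) followed continuously for 70 min; IC50 from initial rates by 4- or 5-parameter logistic fit.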
TrkA, sequence (P04629 33-796): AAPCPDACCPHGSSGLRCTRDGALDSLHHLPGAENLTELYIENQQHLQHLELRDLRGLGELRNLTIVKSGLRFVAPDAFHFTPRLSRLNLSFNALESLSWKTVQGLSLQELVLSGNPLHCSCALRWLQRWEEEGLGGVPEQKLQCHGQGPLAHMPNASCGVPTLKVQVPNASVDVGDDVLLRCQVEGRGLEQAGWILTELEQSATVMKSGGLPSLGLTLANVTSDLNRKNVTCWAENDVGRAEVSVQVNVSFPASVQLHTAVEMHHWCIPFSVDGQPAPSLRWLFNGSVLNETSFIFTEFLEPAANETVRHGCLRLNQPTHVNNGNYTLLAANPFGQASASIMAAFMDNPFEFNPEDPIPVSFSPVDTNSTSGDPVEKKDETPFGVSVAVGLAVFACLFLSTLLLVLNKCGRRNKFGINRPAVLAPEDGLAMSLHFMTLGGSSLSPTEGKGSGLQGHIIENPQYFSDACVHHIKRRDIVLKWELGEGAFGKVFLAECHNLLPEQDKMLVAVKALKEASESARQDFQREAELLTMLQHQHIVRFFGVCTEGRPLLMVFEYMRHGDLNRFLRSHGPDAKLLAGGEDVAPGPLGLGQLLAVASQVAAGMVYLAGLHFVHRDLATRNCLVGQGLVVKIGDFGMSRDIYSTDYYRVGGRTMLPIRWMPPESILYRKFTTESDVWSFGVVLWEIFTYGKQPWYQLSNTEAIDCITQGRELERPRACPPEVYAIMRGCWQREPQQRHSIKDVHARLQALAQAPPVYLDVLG
`COCCN1C[C@@H](NC(=O)Nc2c(-c3ccccc3)nn(C(C)C)c2C)[C@H](c2cc(F)cc(F)c2)C1` [Example 642, 1-((3S,4R)-4-(3,5-difluorophenyl)-1-(2-methoxyethyl)pyrrolidin-3-yl)-3-(1-isopropyl-5-methyl-3-phenyl-1H-pyrazol-4-yl)urea] showed a 50% inhibitory concentration (IC50) of 100 to 1000 nM.
`CCOc1nn(-c2ccccc2)c(NC(=O)N[C@@H]2CN(CC(=O)OC)C[C@H]2c2ccc(F)c(F)c2)c1C` [Example 468, methyl 2-((3R,4S)-3-(3,4-difluorophenyl)-4-(3-(3-ethoxy-4-methyl-1-phenyl-1H-pyrazol-5-yl)ureido)pyrrolidin-1-yl)acetate] gave a concentration for half-maximal inhibition (IC50) of less than 100 nM.
As to `COCCN1C[C@@H](NC(=O)Nc2cc(C(C)(C)CO)nn2-c2ccccc2)[C@H](c2ccccc2)C1` [Example 94, 1-(3-(1-hydroxy-2-methyl-propan-2-yl)-1-phenyl-1H-pyrazol-5-yl)-3-((3S,4R)-1-(2-methoxyethyl)-4-phenylpyrrolidin-3-yl)urea], the 50% inhibitory concentration (IC50) lay in the range of 100 to 1000 nM.
The value for `COCCN1C[C@@H](NC(=O)Nc2c(Br)c(COC)nn2-c2ccccc2)[C@H](c2ccc(F)cc2)C1` [Example 408, 1-(4-bromo-3-(methoxymethyl)-1-phenyl-1H-pyrazol-5-yl)-3-((3S,4R)-4-(4-fluorophenyl)-1-(2-methoxyethyl)pyrrolidin-3-yl)urea] was less than 100 nM; that for `COCCN1C[C@@H](NC(=O)Nc2c(Cl)c(-c3cnn(C)c3)nn2-c2ccccc2)[C@H](c2ccc(F)cc2)C1` [Example 424, 1-(4-chloro-1′-methyl-1-phenyl-1H,1′H-[3,4′-bipyrazol]-5-yl)-3-((3S,4R)-4-(4-fluorophenyl)-1-(2-methoxyethyl)pyrrolidin-3-yl)urea] was less than 100 nM; that for `COCCN1C[C@@H](NC(=O)Nc2cc(-c3cnn(C)c3)nn2C)[C@H](c2ccc(F)c(F)c2)C1` [Example 58, 1-((3S,4R)-4-(3,4-difluorophenyl)-1-(2-methoxyethyl)pyrrolidin-3-yl)-3-(1,1′-dimethyl-1H,1′H-3,4′-bipyrazol-5-yl)urea] was less than 100 nM.
With `COCCN1C[C@@H](NC(=O)Nc2c3c(nn2-c2ccccc2)CCCC3)[C@H](c2ccccc2)C1` (relative stereo) [Example 26, 1-(trans-1-(2-methoxyethyl)-4-phenylpyrrolidin-3-yl)-3-(2-phenyl-4,5,6,7-tetrahydro-2H-indazol-3-yl)urea] the figure was less than 100 nM; with `CCNC(=O)COc1nn(-c2ccccc2)c(NC(=O)N[C@@H]2CN(CCOC)C[C@H]2c2ccc(F)c(F)c2)c1C` [Example 541, 2-((5-(3-((3S,4R)-4-(3,4-difluorophenyl)-1-(2-methoxyethyl)pyrrolidin-3-yl)ureido)-4-methyl-1-phenyl-1H-pyrazol-3-yl)oxy)-N-ethylacetamide], less than 100 nM.
The value for `CCOc1nn(C)c(NC(=O)N[C@@H]2CN(CCOC)C[C@H]2c2ccc(F)c(F)c2)c1-c1ccccc1` [Example 157, 1-((3S,4R)-4-(3,4-difluorophenyl)-1-(2-methoxyethyl)pyrrolidin-3-yl)-3-(3-ethoxy-1-methyl-4-phenyl-1H-pyrazol-5-yl)urea] was less than 100 nM; that for `COCCN1C[C@@H](NC(=O)Nc2c(C)c(-c3cnn(C)c3)nn2-c2ccccc2)[C@H](c2cc(F)cc(Cl)c2)C1` [Example 467, 1-((3S,4R)-4-(3-chloro-5-fluorophenyl)-1-(2-methoxyethyl)pyrrolidin-3-yl)-3-(1′,4-dimethyl-1-phenyl-1H, 1′H-3,4′-bipyrazol-5-yl)urea] was less than 100 nM; that for `COCCN1C[C@@H](NC(=O)Nc2c(C)c(=O)[nH]n2-c2ccccc2)[C@H](c2ccc(F)c(Cl)c2)C1` (relative stereo) [Example 610, 1-((trans)-4-(3-chloro-4-fluorophenyl)-1-(2-methoxyethyl)pyrrolidin-3-yl)-3-(4-methyl-5-oxo-2-phenyl-2,5-dihydro-1H-pyrazol-3-yl)urea] was less than 100 nM.

The values above are taken from patent US10323022B2, “Pyrrolidinyl urea, pyrrolidinyl thiourea and pyrrolidinyl guanidine compounds as TrkA kinase inhibitors” (Array BioPharma Inc., priority 2011, dated 2019).
